Data: ChEMBL document CHEMBL1201862, “PubChem BioAssay data set” (2004)
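All cell lines were grown in 96-well plates and treated with compound for 48 hours. At the GI50, growth is halved.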 Activity calls are given as the source filed them. Rule as the data show it: active = GI50 up to about 1.1 µM and inactive = higher.

What was measured:
Assay in all cases: NCI-60 cell line screen, 48 h
LOX IMVI = system: LOX IMVI
NCI-H23 = system: NCI-H23
SR = system: SR
HCC 2998 = system: HCC 2998
EKVX = system: EKVX
HOP-18 = system: HOP-18
HT-29 = system: HT-29
SK-OV-3 = system: SK-OV-3
SK-MEL-28 = system: SK-MEL-28
HCT-15 = system: HCT-15
HCT-116 = system: HCT-116
RXF 393 = system: RXF 393
CCRF-CEM = system: CCRF-CEM
M19-MEL = system: M19-MEL
ACHN = system: ACHN
NCI-H460 = system: NCI-H460
SNB-19 = system: SNB-19
K562 = system: K562
KM-20L2 = system: KM-20L2
KM12 = system: KM12
DLD-1 = system: DLD-1
A549 = system: A549
SK-MEL-5 = system: SK-MEL-5
COLO 205 = system: COLO 205
UO-31 = system: UO-31
OVCAR-3 = system: OVCAR-3
UACC-257 = system: UACC-257
SN12C = system: SN12C
RPMI-8226 = system: RPMI-8226
SNB-75 = system: SNB-75
NCI-H522 = system: NCI-H522
NCI-H226 = system: NCI-H226
DMS-273 = system: DMS-273
TK-10 = system: TK-10
U-251 = system: U-251
UACC-62 = system: UACC-62
OVCAR-8 = system: OVCAR-8
OVCAR-4 = system: OVCAR-4
XF498 = system: XF498
SF-268 = system: SF-268
SF-539 = system: SF-539
M14 = system: M14
HOP-62 = system: HOP-62
LXFL 529 = system: LXFL 529
SNB-78 = system: SNB-78
SW-620 = system: SW-620
SK-MEL-2 = system: SK-MEL-2
IGROV-1 = system: IGROV-1
786-0 = system: 786-0
SF-295 = system: SF-295
CAKI-1 = system: CAKI-1
HL-60 = system: HL-60
HOP-92 = system: HOP-92
MOLT-4 = system: MOLT-4
DMS-114 = system: DMS-114
Malme-3M = system: Malme-3M
OVCAR-5 = system: OVCAR-5

## Nc1nc(Cl)cc(NCCCCCCCCNc2cc(Cl)nc(N)n2)n1
LOX IMVI
  GI50: 3.82 µM (inactive)
NCI-H23
  GI50: 1.22 µM (inactive)
SR
  GI50: 3.61 µM (inactive)
HCC 2998
  GI50: 65.6 µM (inactive)
EKVX
  GI50: > 100 µM (inactive)
HOP-18
  GI50: 27.1 µM (inactive)
HT-29
  GI50: 12.3 µM (inactive)
SK-OV-3
  GI50: > 100 µM (inactive)
SK-MEL-28
  GI50: 31.8 µM (inactive)
HCT-15
  GI50: 8.59 µM
HCT-116
  GI50: 2.39 µM (inactive)
RXF 393
  GI50: 12.2 µM (inactive)
CCRF-CEM
  GI50: 73.3 µM (inactive)
M19-MEL
  GI50: 16 µM (inactive)
ACHN
  GI50: 0.221 µM (active)
NCI-H460
  GI50: 31.3 µM (inactive)
SNB-19
  GI50: > 100 µM (inactive)
K562
  GI50: 2.2 µM (inactive)
KM-20L2
  GI50: 9.48 µM (inactive)
KM12
  GI50: 14.7 µM (inactive)
DLD-1
  GI50: 10.2 µM (inactive)
A549
  GI50: 3.56 µM (inactive)
SK-MEL-5
  GI50: 0.675 µM (active)
COLO 205
  GI50: 26.4 µM (inactive)
UO-31
  GI50: 22 µM (inactive)
OVCAR-3
  GI50: 3.2 µM (inactive)
UACC-257
  GI50: 2.91 µM (inactive)
SN12C
  GI50: 57.4 µM (inactive)
RPMI-8226
  GI50: 2.4 µM (inactive)
SNB-75
  GI50: 25.9 µM (inactive)
NCI-H522
  GI50: 1.13 µM (inactive)
NCI-H226
  GI50: 6.24 µM (inactive)
DMS-273
  GI50: 8.79 µM (inactive)
TK-10
  GI50: 14.9 µM (inactive)
U-251
  GI50: 25.6 µM (inactive)
UACC-62
  GI50: 1.36 µM (inactive)
OVCAR-8
  GI50: 11.7 µM (inactive)
OVCAR-4
  GI50: 4.29 µM (inactive)
XF498
  GI50: 1.64 µM (inactive)
SF-268
  GI50: 36.8 µM (inactive)
SF-539
  GI50: 28.7 µM (inactive)
M14
  GI50: 19.2 µM (inactive)
HOP-62
  GI50: 27.8 µM (inactive)
LXFL 529
  GI50: 1.86 µM (inactive)
SNB-78
  GI50: 71.6 µM (inactive)
SW-620
  GI50: 36.8 µM (inactive)
SK-MEL-2
  GI50: 13.5 µM (inactive)
IGROV-1
  GI50: 23.7 µM (inactive)
786-0
  GI50: 25.8 µM (inactive)
SF-295
  GI50: 1.48 µM (inactive)
CAKI-1
  GI50: 8.81 µM (inactive)
HL-60
  GI50: 1.46 µM (inactive)
HOP-92
  GI50: 7.76 µM (inactive)

## COC(=O)N/N=C(/CCC(=O)Nc1ccc(C)c(C)c1)CC(=O)C(C)(C)C
LOX IMVI
  GI50: > 100 µM (inactive)
NCI-H23
  GI50: > 100 µM (inactive)
HCC 2998
  GI50: > 100 µM (inactive)
EKVX
  GI50: > 100 µM (inactive)
HOP-18
  GI50: > 100 µM (inactive)
HT-29
  GI50: > 100 µM (inactive)
SK-OV-3
  GI50: > 100 µM (inactive)
SK-MEL-28
  GI50: > 100 µM (inactive)
HCT-15
  GI50: > 100 µM
RXF 393
  GI50: > 100 µM (inactive)
CCRF-CEM
  GI50: > 100 µM (inactive)
M19-MEL
  GI50: > 100 µM (inactive)
ACHN
  GI50: > 100 µM (inactive)
MOLT-4
  GI50: > 100 µM (inactive)
NCI-H460
  GI50: > 100 µM (inactive)
SNB-19
  GI50: > 100 µM (inactive)
K562
  GI50: > 100 µM (inactive)
KM-20L2
  GI50: > 100 µM (inactive)
KM12
  GI50: > 100 µM (inactive)
DMS-114
  GI50: > 100 µM (inactive)
DLD-1
  GI50: > 100 µM (inactive)
A549
  GI50: > 100 µM (inactive)
SK-MEL-5
  GI50: > 100 µM (inactive)
COLO 205
  GI50: > 100 µM (inactive)
UO-31
  GI50: > 100 µM (inactive)
OVCAR-3
  GI50: > 100 µM (inactive)
UACC-257
  GI50: > 100 µM (inactive)
SN12C
  GI50: > 100 µM (inactive)
Malme-3M
  GI50: > 100 µM (inactive)
RPMI-8226
  GI50: > 100 µM (inactive)
SNB-75
  GI50: > 100 µM (inactive)
NCI-H522
  GI50: > 100 µM (inactive)
NCI-H226
  GI50: > 100 µM (inactive)
DMS-273
  GI50: > 100 µM (inactive)
TK-10
  GI50: > 100 µM (inactive)
U-251
  GI50: > 100 µM (inactive)
UACC-62
  GI50: > 100 µM (inactive)
OVCAR-8
  GI50: > 100 µM (inactive)
OVCAR-4
  GI50: > 100 µM (inactive)
XF498
  GI50: > 100 µM (inactive)
SF-268
  GI50: > 100 µM (inactive)
SF-539
  GI50: > 100 µM (inactive)
M14
  GI50: > 100 µM (inactive)
HOP-62
  GI50: > 100 µM (inactive)
LXFL 529
  GI50: > 100 µM (inactive)
OVCAR-5
  GI50: > 100 µM (inactive)
SW-620
  GI50: > 100 µM (inactive)
SK-MEL-2
  GI50: > 100 µM (inactive)
IGROV-1
  GI50: > 100 µM (inactive)
786-0
  GI50: > 100 µM (inactive)
SF-295
  GI50: > 100 µM (inactive)
CAKI-1
  GI50: > 100 µM (inactive)
HL-60
  GI50: > 100 µM (inactive)
